We go through 17 compounds from patent publication US9593113B2, “Imide and acylurea derivatives as modulators of the glucocorticoid receptor” (BRISTOL-MYERS SQUIBB COMPANY, priority 2013, dated 2017).

Read-outs that look alike come from different tables or passages of the source.

One may read the EC50 as the concentration needed to bring the measured effect to its halfway point.

This experiment relates to AP-1 induced transcriptional activity. The experiment is described as follows: Cellular transrepressional assay (AP-1 luciferase reporter, PMA-activated A549 cell). The settings on record: A549 cell, 10 ng/ml PMA, 7 hours; for EC50: read-out: AP-1 (EC50, nM) (measured in cellular transrepression assay). The experiment is classed as cell-based. The method, then:
To measure the ability of test molecules to inhibit AP-1 induced transcriptional activity we utilized an A549 cell which was stably transfected with a plasmid containing 7×AP-1 DNA binding sites (pAP-1-Luc plasmid, Stratagene Co., La Jolla, Calif.) followed by the gene for luciferase. Cells were activated with 10 ng/ml of phorbol myristic acid (PMA) plus or minus test molecules for 7 hours. After 7 hours a luciferase reagent was added to measure luciferase enzymatic activity in the cell. After a 10 minute incubation of luciferase reagent with cells, luminescence was measured in a TOPCOUNT® luminescence counter. Repression of AP-1 activity was calculated as the percentage decrease in the signal induced by PMA alone. Test molecules were analyzed in the concentration range from 0.1 nM to 40 μM. EC50s were determined by using standard curve fitting methods such as Excel fit (Microsoft Co.). An EC50 is the test molecule concentration at which there is a 50% repression of the maximal inhibition of transcription, i.e., a 50% reduction of AP-1 activity.
On the technique in general: In a reporter assay the amount or activity of a reporter protein is the signal.

`CC(=O)NC(=O)C(C)(C)[C@@H]1c2ccc(-c3ccc(C(=O)N4CCOCC4)cc3)nc2Oc2c(F)cccc21` [Example 2]: the “AP-1 Max % inhibition (measured in cellular transrepression assay)” value (“AP-1 Max % inhibition” for short) is 67.48%. Further, the EC50 (Homo sapiens) is 4.97 nM.

As to `CC(=O)NC(=O)C(C)(C)[C@@H]1c2ccc(-c3ccc(C(=O)N(C)C)cc3)nc2Oc2c(F)cccc21` [Example 3], the “AP-1 Max % inhibition” value came out at 79.66%. Besides, under “Homo sapiens”, the concentration for a half-maximal effect (EC50) came out at 267 nM.

For the compound `CC(=O)NC(=O)C(C)(C)[C@H]1c2ccccc2Oc2nc(-c3ccc(C(=O)N4CCOCC4)cc3)ccc21` [Example 4], the “AP-1 Max % inhibition” value amounted to 67.93%. Besides, the EC50 (Homo sapiens) is 6.65 nM.

On to `CCC(=O)NC(=O)C(C)(C)[C@@H]1c2ccc(-c3ccc(C(=O)N4CCOCC4)cc3)nc2Oc2c(F)cccc21` [Example 5], for which the “AP-1 Max % inhibition” value was 32.83%. Besides, the EC50 (Homo sapiens) was 180 nM.

Regarding `CC(C)(C(=O)NC(=O)N1CCOCC1)[C@@H]1c2ccc(-c3ccc(C(=O)N4CCOCC4)cc3)nc2Oc2c(F)cccc21` [Example 10], the “AP-1 Max % inhibition” value came out at 66.12%. In addition, the EC50 (Homo sapiens) stood at 623 nM.

`CNC(=O)NC(=O)C(C)(C)[C@@H]1c2ccc(Cl)nc2Oc2c(F)cccc21` [Example 14]: the “AP-1 Max % inhibition” value stood at 54.92%. The half-maximal effective concentration (EC50) (Homo sapiens) came out at 337 nM.

`CNC(=O)NC(=O)C(C)(C)[C@@H]1c2ccc(-c3ccc(C(C)(C)O)cc3)nc2Oc2c(F)cccc21` [Example 15]: the “AP-1 Max % inhibition” value turned out to be 61.15%. In addition, the EC50 (Homo sapiens) was found to be 47.1 nM.

As for `CC(C)NC(=O)NC(=O)C(C)(C)[C@@H]1c2ccc(-c3ccc(C(=O)N4CCOCC4)cc3)nc2Oc2c(F)cccc21` [Example 19], the “AP-1 Max % inhibition” value is listed as 25.94%. Besides, where the note is “Homo sapiens”, the concentration for a half-maximal effect (EC50) was determined as 199 nM.

Regarding `CC(C)(C(=O)NC(=O)NC1CCCC1)[C@@H]1c2ccc(-c3ccc(C(=O)N4CCOCC4)cc3)nc2Oc2c(F)cccc21` [Example 20], the “AP-1 Max % inhibition” value worked out at 29.26% and the EC50 is 135 nM.

Consider `CC(C)(C(=O)NC(=O)Nc1ccccc1)[C@@H]1c2ccc(-c3ccc(C(=O)N4CCOCC4)cc3)nc2Oc2c(F)cccc21` [Example 21], for which the “AP-1 Max % inhibition” value amounted to 39.92% and the EC50 amounted to 21.7 nM.

For the compound `CCNC(=O)NC(=O)C(C)(C)[C@@H]1c2ccc(-c3ccc(C(=O)N4CCOCC4)cc3)nc2Oc2c(F)cccc21` [Example 22], the “AP-1 Max % inhibition” value is listed as 44.77% and the EC50 was determined as 8.21 nM.

On to `COC(=O)NC(=O)C(C)(C)[C@@H]1c2ccc(-c3ccc(C(=O)OC)cc3)nc2Oc2c(F)cccc21` [Example 26], for which the “AP-1 Max % inhibition” value worked out at 6.98%. The EC50 (Homo sapiens) is 5000 nM.

Turning to `CC(C)(C(=O)NC(N)=O)[C@H]1c2ccccc2Oc2nc(-c3ccc(C(=O)N4CCOCC4)cc3)ccc21` [Example 28], the “AP-1 Max % inhibition” value is 68.66%. Besides, the half-maximal effective concentration (EC50) (Homo sapiens) turned out to be 7.63 nM.

Turning to `CC(C)(C(=O)NC(N)=O)[C@H]1c2ccccc2Oc2nc(-c3ccc(C(=O)N4CCOCC4)c(F)c3)ccc21` [Example 44], the “AP-1 Max % inhibition” value worked out at 69.43% and the EC50 was 13.9 nM.

As to `CC(C)(C(=O)NC(N)=O)[C@H]1c2ccccc2Oc2nc(-c3ccc(C(=O)N4CCOCC4)nc3)ccc21` [Example 55], the “AP-1 Max % inhibition” value came out at 60.59% and the EC50 was found to be 116 nM.

In the case of `CC(C)(C(=O)NC(N)=O)[C@@H]1c2ccc(-c3ccc(C(=O)N4CCOCC4)c(F)c3)nc2Oc2c(F)cccc21` [Example 56], the “AP-1 Max % inhibition” value was 72.50% and the concentration for a half-maximal effect (EC50) came out at 6.39 nM.

As for `CC(C)(O)c1ccc(-c2ccc3c(n2)Oc2c(F)cccc2[C@@H]3C(C)(C)C(=O)NC(N)=O)cc1` [Example 69], the “AP-1 Max % inhibition” value stood at 67.09%. The half-maximal effective concentration (EC50) (Homo sapiens) is 2.03 nM.
